# Laboratory results taken from patent US7250408B2, “Glucocorticoid receptor antagonists for prophylaxis and therapy of glucocorticoid-mediated hypogonadism, of sexual dysfunction and/or infertility” (Bayer Schering Pharma AG, priority 2002, dated 2007).
# How the values were obtained:
# Glucocorticoid Receptor = target: T1, Glucocorticoid Receptor (Homo sapiens, UniProt P04150); assay: Glucocorticoid receptor binding, relative binding affinity (RBA); details: RBA relative to dexamethasone = 100
# T1 sequence (P04150 1-777): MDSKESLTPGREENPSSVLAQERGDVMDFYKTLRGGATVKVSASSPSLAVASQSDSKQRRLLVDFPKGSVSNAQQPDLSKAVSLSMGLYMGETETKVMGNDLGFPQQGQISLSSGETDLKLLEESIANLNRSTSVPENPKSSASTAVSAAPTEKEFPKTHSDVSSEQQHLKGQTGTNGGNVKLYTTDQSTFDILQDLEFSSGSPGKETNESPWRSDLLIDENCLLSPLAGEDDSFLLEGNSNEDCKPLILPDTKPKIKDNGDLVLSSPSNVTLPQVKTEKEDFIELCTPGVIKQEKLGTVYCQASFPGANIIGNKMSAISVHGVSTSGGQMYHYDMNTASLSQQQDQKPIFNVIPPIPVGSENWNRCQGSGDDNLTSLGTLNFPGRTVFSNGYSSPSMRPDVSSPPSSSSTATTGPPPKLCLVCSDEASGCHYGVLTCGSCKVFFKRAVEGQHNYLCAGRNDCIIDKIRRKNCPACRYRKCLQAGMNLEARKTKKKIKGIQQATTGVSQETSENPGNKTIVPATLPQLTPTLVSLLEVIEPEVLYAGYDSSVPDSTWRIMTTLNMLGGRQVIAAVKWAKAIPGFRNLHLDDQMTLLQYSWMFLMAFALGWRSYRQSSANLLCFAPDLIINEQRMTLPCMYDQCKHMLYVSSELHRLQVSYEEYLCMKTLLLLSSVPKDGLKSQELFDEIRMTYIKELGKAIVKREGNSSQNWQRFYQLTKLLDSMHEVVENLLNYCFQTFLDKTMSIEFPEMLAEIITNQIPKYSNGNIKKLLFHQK
# Progesterone Receptor = target: T2, Progesterone Receptor (Homo sapiens, UniProt P06401); assay: Progesterone receptor binding, relative binding affinity (RBA); details: RBA relative to progesterone = 100
# T2 sequence (P06401 1-933): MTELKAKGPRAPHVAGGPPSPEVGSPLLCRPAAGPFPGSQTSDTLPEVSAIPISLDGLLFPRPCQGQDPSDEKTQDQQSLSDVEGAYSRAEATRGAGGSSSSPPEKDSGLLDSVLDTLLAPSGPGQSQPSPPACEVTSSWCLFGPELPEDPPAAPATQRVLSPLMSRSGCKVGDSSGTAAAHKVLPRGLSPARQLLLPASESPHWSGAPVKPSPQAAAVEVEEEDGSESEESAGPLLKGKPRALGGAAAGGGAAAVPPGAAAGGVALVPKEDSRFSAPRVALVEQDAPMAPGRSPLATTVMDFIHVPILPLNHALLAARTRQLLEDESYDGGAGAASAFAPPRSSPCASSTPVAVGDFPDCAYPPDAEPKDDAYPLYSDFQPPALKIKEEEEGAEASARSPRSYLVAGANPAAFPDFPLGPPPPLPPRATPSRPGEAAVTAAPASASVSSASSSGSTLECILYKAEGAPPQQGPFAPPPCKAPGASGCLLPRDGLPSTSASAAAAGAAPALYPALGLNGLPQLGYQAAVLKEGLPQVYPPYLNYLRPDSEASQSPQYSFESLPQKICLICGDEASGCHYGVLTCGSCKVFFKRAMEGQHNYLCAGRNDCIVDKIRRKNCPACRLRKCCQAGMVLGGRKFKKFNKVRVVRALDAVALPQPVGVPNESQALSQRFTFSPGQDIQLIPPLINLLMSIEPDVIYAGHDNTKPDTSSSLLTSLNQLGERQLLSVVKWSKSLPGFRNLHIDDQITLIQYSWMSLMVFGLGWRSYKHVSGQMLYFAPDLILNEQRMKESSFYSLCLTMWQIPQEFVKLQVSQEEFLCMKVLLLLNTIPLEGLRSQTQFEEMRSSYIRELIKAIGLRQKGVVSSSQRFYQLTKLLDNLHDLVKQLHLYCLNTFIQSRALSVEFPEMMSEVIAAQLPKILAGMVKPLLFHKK
Compound,"Relative Binding Affinity to Glucocorticoid Receptor, % (Glucocorticoid Receptor)","Relative Binding Affinity to Progesterone Receptor, % (Progesterone Receptor)"
"COc1cccc(C2CC3(C)C(CCC3(O)C#CC(C)(C)C)C3CCC4=CC(=O)CCC4=C23)c1 (stereo not drawn) [Example 1, 21-tert.Butyl-17-hydroxy-11β-(3-methoxyphenyl)-19-nor-17α-pregna-4,9-dien-20-yn-3-one]",85%,3.4%
"COc1cccc(C2CC3(C)C(CCC3(O)C#Cc3cccc(C=O)c3)C3CCC4=CC(=O)CCC4=C23)c1 (stereo not drawn) [Example 3, 3-{17-Hydroxy-11β-[3-(methoxy)phenyl]-3-keto-19-nor-17α-pregna-4,9-dien-20-yn-21-yl}benzaldehyde]",159%,4.3%
COc1cccc(C2CC3(C)C(CCC3(O)C#Cc3ccc(OC(C)=O)cc3)C3CCC4=CC(=O)CCC4=C23)c1 (centres unmarked) [Example 4],98%,2.8%
COc1cccc(C2CC3(C)C(CCC3(O)C#Cc3ccc(-n4cccc4)cc3)C3CCC4=CC(=O)CCC4=C23)c1 (centres unmarked) [Example 5],57%,3.4%
COc1cccc(C2CC3(C)C(CCC3(O)C#Cc3ccc(O)cc3)C3CCC4=CC(=O)CCC4=C23)c1 (centres unmarked) [Example 6],109%,2.9%
"COc1cccc(C2CC3(C)C(CCC3(O)C#Cc3ccc(S(C)(=O)=O)cc3)C3CCC4=CC(=O)CCC4=C23)c1 (stereo not drawn) [Example 7, 17-Hydroxy-21-(4-mesylphenyl)-11,6-(3-methoxyphenyl)-19-nor-17α-pregna-4,9-dien-20-yn-3-one]",155%,1.0%
"COc1cccc(C2CC3(C)C(CCC3(O)C#Cc3cccc(C=NO)c3)C3CCC4=CC(=O)CCC4=C23)c1 (stereo not drawn) [Example 10, 3-E-[17-Hydroxy-11β-[3-(methoxy)phenyl)-19-nor-3-keto-17α-pregna-4,9-dien-20-yn-21-yl]benzaldoxime]",148%,10.4%
